The values below come from US5116974A, “3-carbalkoxyamino-5-aminoacyl-5H-dibenz[b,f]azepines, and methods for making” (Arzneimittelwerk Dresden GmbH, priority 1989, dated 1992).

Series [1] is described as follows: in vivo. The note with it: rat, iv, male or female Wistar rats, i.v. tail vein, Probit regression, confidence interval p=0.05 in parentheses, read-out: LD50 i.v. (acute tox., rat). The text has this:
LD50 i.v. =lethal dose in mg/kg for 50% of the experimental animals of an orientating acute toxicity test on male or female Wistar rats of our own breed, i.v. administration in the tail vein, 3-4 dosages, 10 animals per group. Data analyzed by the Probit regression analysis with a confidence interval of p=0.05 (values given in parentheses).

In series [2] the test system is aconitine arrhythmia in female Wistar rats. The format is in vivo, rat (female Wistar). The note with it: for ED73 i.v. (aconitine, rat): dose which inhibits aconitine arrhythmia up to the occurrence of isolated ventricular extrasystoles: female Wistar rats, Probit regression, confidence interval p=0.05 in parentheses; for Q = LD50 i.v./ED73 i.v. (therapeutic breadth): rat, ratio of LD50 to ED73 (aconitine model). How it is done:
ED73 i.v. =the dose in mg/kg, which inhibits aconitine arrhythmia in female Wistar rats after i.v. administration of the test substance up to the occurrence of isolated ventricular extrasystolea (K. Femmer et al., Pharmazie 31, page 36 (1976). The data is analyzed by the Probit regression analysis with a confidence interval of p=0.05 (values given in parentheses).

For series [3], the system named is dogs, 24 hours after a 2-step coronary ligature. Nature of the series: 2-step coronary ligature in dogs (Harris model). The format is in vivo, dog. The text has this:
It is also emphasized that, in comparative investigations of the 2-step coronary ligature in dogs (Harris model), the new compounds of formula I have an advantageously sustained duration of action (see Table 1).

A short description of series [4]: Solubility. The format is physicochemical.

Each structure is given as a SMILES string.

Broadly, the LD50 is the dose at which mortality reaches 50%.

As for `Cc1cccc(C)c1OCC(C)N` (stereo not shown) [Mexiletin, mexiletin, reference compound], the LD50 in series [1] was determined as 41 mg/kg. Further, the “ED73 i.v. (aconitine, rat): dose which inhibits aconitine arrhythmia up to the occurrence of isolated ventricular extrasystoles” value in series [2] amounted to 15 mg/kg.
Consider `CCN(CC)CC(=O)Nc1c(C)cccc1C` [Lidocaine, lidocaine, reference compound], for which the “duration of action (dog, Harris)” value in series [3] (at eff. dose 6.0 mg/kg i.v.) turned out to be 10 min.
For `CNCC(=O)N1c2ccccc2CCc2ccc(NC(=O)OC(C)C)cc21` [No. 11], the LD50 in series [1] was found to be 15 mg/kg. In series [2], the “ED73 i.v. (aconitine, rat): dose which inhibits aconitine arrhythmia up to the occurrence of isolated ventricular extrasystoles” value is 0.61 mg/kg and the “Q = LD50 i.v./ED73 i.v. (therapeutic breadth)” value stood at 25.
In the case of `CCOC(=O)Nc1ccc2c(c1)N(C(=O)CCNCCO)c1ccccc1CC2` [No. 18], the “duration of action (dog, Harris)” value in series [3] (at eff. dose 2.0 mg/kg i.v.) is on record as 60 min. For the same compound, in series [1], the LD50 stood at 20 mg/kg. Moreover, in series [2], the “ED73 i.v. (aconitine, rat): dose which inhibits aconitine arrhythmia up to the occurrence of isolated ventricular extrasystoles” value came out at 0.85 mg/kg and the “Q = LD50 i.v./ED73 i.v. (therapeutic breadth)” value is on record as 24.
Consider `CCCCCCNCC(=O)N1c2ccccc2CCc2ccc(NC(=O)OCC)cc21` [No. 9], for which the LD50 in series [1] worked out at 14 mg/kg. In series [2], the “ED73 i.v. (aconitine, rat): dose which inhibits aconitine arrhythmia up to the occurrence of isolated ventricular extrasystoles” value came out at 0.90 mg/kg and the “Q = LD50 i.v./ED73 i.v. (therapeutic breadth)” value is recorded as 16.
On to `CCOC(=O)Nc1ccc2c(c1)N(C(=O)CN(C)C)c1ccccc1CC2` [Bonnecor ®, 3-carbethoxyamino-5-dimethylaminoacetyl-10,11-dihydro-5H-dibenz[b,f]azepine, reference compound], for which the “duration of action (dog, Harris)” value in series [3] (at eff. dose 2.0 mg/kg i.v.) came out at 15 min. Besides, the LD50 in series [1] came out at 11 mg/kg. In series [2], the “ED73 i.v. (aconitine, rat): dose which inhibits aconitine arrhythmia up to the occurrence of isolated ventricular extrasystoles” value came out at 0.28 mg/kg and the “Q = LD50 i.v./ED73 i.v. (therapeutic breadth)” value was determined as 39.
Consider `COC(=O)Nc1ccc2c(c1)N(C(=O)CNCCO)c1ccccc1CC2` [No. 16], for which the median lethal dose (LD50) in series [1] is 36 mg/kg. Further, in series [2], the “ED73 i.v. (aconitine, rat): dose which inhibits aconitine arrhythmia up to the occurrence of isolated ventricular extrasystoles” value amounted to 0.40 mg/kg and the “Q = LD50 i.v./ED73 i.v. (therapeutic breadth)” value is reported as 90.
The corresponding values for `CCNCC(=O)N1c2ccccc2CCc2ccc(NC(=O)OC(C)C)cc21` [No. 13, 3-carbisopropoxyamino-5-ethylamino-acetyl-10,11-dihydro-5H-dibenz[b,f]azepine] are 16 mg/kg, 0.47 mg/kg and 34.
`CC(C)OC(=O)Nc1ccc2c(c1)N(C(=O)CNC(C)(C)C)c1ccccc1CC2` [No. 14]: the “ED73 i.v. (aconitine, rat): dose which inhibits aconitine arrhythmia up to the occurrence of isolated ventricular extrasystoles” value in series [2] is given as 0.18 mg/kg.
On to `CNCC(=O)N1c2ccccc2CCc2ccc(NC(=O)OC)cc21` [No. 15], for which the “duration of action (dog, Harris)” value in series [3] (at eff. dose 2.0 mg/kg i.v.) was 15 min. In addition, the LD50 in series [1] worked out at 20 mg/kg. Further, in series [2], the “ED73 i.v. (aconitine, rat): dose which inhibits aconitine arrhythmia up to the occurrence of isolated ventricular extrasystoles” value was 0.30 mg/kg and the “Q = LD50 i.v./ED73 i.v. (therapeutic breadth)” value came to 67.
As for `CCOC(=O)Nc1ccc2c(c1)N(C(=O)CNC(C)(C)C)c1ccccc1CC2` [No. 6, 3-carbethoxyamino-5-tertiary-butylamino-acetyl-10,11-dihydro-5H-dibenz[b,f]azepine], in series [1], the LD50 worked out at 5.6 mg/kg. Further, in series [2], the “ED73 i.v. (aconitine, rat): dose which inhibits aconitine arrhythmia up to the occurrence of isolated ventricular extrasystoles” value was 0.35 mg/kg and the “Q = LD50 i.v./ED73 i.v. (therapeutic breadth)” value is on record as 16.
In the case of `CCNCC(=O)N1c2ccccc2CCc2ccc(NC(=O)OCC)cc21` [No. 3], the “duration of action (dog, Harris)” value in series [3] (at eff. dose 1.0 mg/kg i.v.) was 60 min. Also, in series [3] (at eff. dose 2.0 mg/kg i.v.), the “duration of action (dog, Harris)” value stood at 180 min. Further, the median lethal dose (LD50) in series [1] was 9.6 mg/kg. In series [2], the “ED73 i.v. (aconitine, rat): dose which inhibits aconitine arrhythmia up to the occurrence of isolated ventricular extrasystoles” value is reported as 0.09 mg/kg and the “Q = LD50 i.v./ED73 i.v. (therapeutic breadth)” value is on record as 107.
Take `CCNCC(=O)N1c2ccccc2CCc2ccc(NC(=O)OC)cc21` [No. 17]: in series [3] (at eff. dose 2.0 mg/kg i.v.), the “duration of action (dog, Harris)” value was 15 min. For the same compound, in series [1], the LD50 was 19 mg/kg. In addition, in series [2], the “ED73 i.v. (aconitine, rat): dose which inhibits aconitine arrhythmia up to the occurrence of isolated ventricular extrasystoles” value came out at 0.95 mg/kg and the “Q = LD50 i.v./ED73 i.v. (therapeutic breadth)” value was determined as 20.
The corresponding values for `CCOC(=O)Nc1ccc2c(c1)N(C(=O)CCN1CCOCC1)c1ccccc1S2` [Morazicine, morazicine, reference compound] are 15 min, 11 mg/kg, 1.1 mg/kg and 10.
Take `CCOC(=O)Nc1ccc2c(c1)N(C(=O)CNC1CCCCC1)c1ccccc1CC2` [No. 8, 3-carbethoxyamino-5-cyclohexylamino-acetyl-10,11-dihydro-5H-dibenz[b,f]azepine]: in series [1], the LD50 was 3.7 mg/kg. In addition, in series [2], the “ED73 i.v. (aconitine, rat): dose which inhibits aconitine arrhythmia up to the occurrence of isolated ventricular extrasystoles” value is 0.25 mg/kg and the “Q = LD50 i.v./ED73 i.v. (therapeutic breadth)” value came out at 15.
For the compound `CC(C)OC(=O)Nc1ccc2c(c1)N(C(=O)CNCCO)c1ccccc1CC2` [No. 12], the 50% lethal dose (LD50) in series [1] was determined as 20 mg/kg. In series [2], the “ED73 i.v. (aconitine, rat): dose which inhibits aconitine arrhythmia up to the occurrence of isolated ventricular extrasystoles” value is 0.51 mg/kg and the “Q = LD50 i.v./ED73 i.v. (therapeutic breadth)” value was 39.
Take `CCOC(=O)Nc1ccc2c(c1)N(C(=O)CNC(C)C)c1ccccc1CC2` [No. 4, 3-carbethoxyamino-5-isopropylamino-acetyl-10,11-dihydro-5H-dibenz[b,f]azepine]: the LD50 in series [1] stood at 8.2 mg/kg. In addition, in series [2], the “ED73 i.v. (aconitine, rat): dose which inhibits aconitine arrhythmia up to the occurrence of isolated ventricular extrasystoles” value is 0.71 mg/kg and the “Q = LD50 i.v./ED73 i.v. (therapeutic breadth)” value was determined as 12.
The corresponding values for `CCOC(=O)Nc1ccc2c(c1)N(C(=O)CN)c1ccccc1CC2` [No. 10, 3-carbethoxyamino-5-amino-acetyl-10,11-dihydro-5H-dibenz[b,f]azepine] are 14 mg/kg, 0.20 mg/kg and 70.
With `CCOC(=O)Nc1ccc2c(c1)N(C(=O)CNC(C)c1ccccc1)c1ccccc1CC2` (stereo not drawn) [No. 22, 3-carbethoxyamino-5-(α-phenylethylamino)-acetyl-10,11-dihydro-5H-dibenz[b,f]azepine], in series [1], the LD50 is 31 mg/kg. Also, in series [2], the “ED73 i.v. (aconitine, rat): dose which inhibits aconitine arrhythmia up to the occurrence of isolated ventricular extrasystoles” value stood at 3.5 mg/kg and the “Q = LD50 i.v./ED73 i.v. (therapeutic breadth)” value came to 9.
The corresponding values for `CCNCC(=O)N1c2ccccc2C=Cc2ccc(NC(=O)OCC)cc21` [No. 20, 3-carbethoxyamino-5-ethylamino-acetyl-acetyl-5H-dibenz[b,f]azepine] are 6.2 mg/kg, 0.40 mg/kg and 15.
With `CCCNCC(=O)N1c2ccccc2CCc2ccc(NC(=O)OCC)cc21` [No. 5, 3-carbethoxyamino-5-n-propylamino-acetyl-10,11-dihydro-5H-dibenz[b,f]azepine], the LD50 in series [1] was 6.1 mg/kg. Also, in series [2], the “ED73 i.v. (aconitine, rat): dose which inhibits aconitine arrhythmia up to the occurrence of isolated ventricular extrasystoles” value is 0.18 mg/kg and the “Q = LD50 i.v./ED73 i.v. (therapeutic breadth)” value turned out to be 34.
Regarding `CCCCNCC(=O)N1c2ccccc2CCc2ccc(NC(=O)OCC)cc21` [No. 7, 3-carbethoxyamino-5-n-butylamino-acetyl-10,11-dihydro-5H-dibenz[b,f]azepin], the median lethal dose (LD50) in series [1] amounted to 5 mg/kg. For the same compound, in series [2], the “ED73 i.v. (aconitine, rat): dose which inhibits aconitine arrhythmia up to the occurrence of isolated ventricular extrasystoles” value turned out to be 0.29 mg/kg and the “Q = LD50 i.v./ED73 i.v. (therapeutic breadth)” value was 17.
The corresponding values for `CCNCCC(=O)N1c2ccccc2CCc2ccc(NC(=O)OCC)cc21` [No. 21, 3-carbethoxyamino-5-(β-ethylaminopropionyl)-10,11-dihydro-5H-dibenz[b,f]azepine] are 12 mg/kg, 0.42 mg/kg and 29.
In the case of `CCOC(=O)Nc1ccc2c(c1)N(C(=O)CNCc1ccccc1)c1ccccc1CC2` [No. 1, 3-carbethoxyamino-b 5-benzylaminoacetyl-10,11-dihydro-5H-dibenz[b,f]azepine], the “solubility of the base in dilute acids (in words)” value in series [4] is “not very soluble in dilute acids”. For the same compound, the median lethal dose (LD50) in series [1] was found to be 13 mg/kg. Moreover, in series [2], the “ED73 i.v. (aconitine, rat): dose which inhibits aconitine arrhythmia up to the occurrence of isolated ventricular extrasystoles” value is given as 0.79 (0.53-1.2) mg/kg and the “Q = LD50 i.v./ED73 i.v. (therapeutic breadth)” value is listed as 16.
On to `CCOC(=O)Nc1ccc2c(c1)N(C(=O)CNC)c1ccccc1C=C2` [No. 19], for which, in series [1], the median lethal dose (LD50) was 11 mg/kg. In series [2], the “ED73 i.v. (aconitine, rat): dose which inhibits aconitine arrhythmia up to the occurrence of isolated ventricular extrasystoles” value was 0.32 mg/kg and the “Q = LD50 i.v./ED73 i.v. (therapeutic breadth)” value came to 34.
As for `CCOC(=O)Nc1ccc2c(c1)N(C(=O)CNCCO)c1ccccc1CC2` [No. 2, 3-carbethoxyamino-5-(beta-oxyethylamino)acetyl-10,11-dihydro-5H-dibenz[b,f]azepine], the “duration of action (dog, Harris)” value in series [3] (at eff. dose 2.0 mg/kg i.v.) is given as 60 min. Further, in series [1], the LD50 turned out to be 12 mg/kg. Further, in series [2], the “ED73 i.v. (aconitine, rat): dose which inhibits aconitine arrhythmia up to the occurrence of isolated ventricular extrasystoles” value was 0.19 mg/kg and the “Q = LD50 i.v./ED73 i.v. (therapeutic breadth)” value is 63.
